In patent publication US9149475B2, “Protein kinase C inhibitors and uses thereof” (Rigel Pharmaceuticals, Inc., priority 2009, dated 2015):

system: Human primary T cells; test: IL-2 ELISA, human primary T cell, anti-CD3+CD28+ (whole cell assay); type: cell-based; details: Homo sapiens, T-cell, 24 h, human primary T cells stimulated with anti-CD3 + anti-CD28, 24 hours
Method in brief: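 IL-2 secreted over 24 h at 37° C was quantified by ELISA after plate-bound αCD3 (1 μg/ml) and αCD28 (5 μg/ml) stimulation, or PMA (0.5 ng/ml) with ionomycin (0.1 μM) as counter-screen. Cells were IL-2-starved primary human T cells, expanded from volunteer PBMC and exposed to compound for 1 hr beforehand.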

Structure (SMILES)	IC50 [nM]
COc1cc(NC(C)=O)cc(Nc2ncc(F)c(NC3CC(C)(C)N(C)C(C)(C)C3)n2)c1 [Compound I-110, N2-(3-Acetylamino-5-methoxyphenyl)-5-fluoro-N4-(1,2,2,6,6-pentamethylpiperidin-4-yl)-2,4-pyrimidinediamine]	500 to 1000
Cc1nnnn1-c1cc(Nc2ncc(F)c(NC3CC(C)(C)N(C)C(C)(C)C3)n2)cnc1O [Compound I-112, 5-(4-(1,2,2,6,6-pentamethylpiperidin-4-ylamino)-5-fluoropyrimidin-2-ylamino)-3-(5-methyl-1H-tetrazol-1-yl)pyridin-2-ol]	> 1000
Cc1nnnn1-c1cc(Nc2ncc(F)c(NC3CC(C)(C)N(C)C(C)(C)C3)n2)cnc1OC(C)C [Compound I-113, 5-fluoro-N2-(6-isopropoxy-5-(5-methyl-1H-tetrazol-1-yl)pyridin-3-yl)-N4-(1,2,2,6,6-pentamethylpiperidin-4-yl)pyrimidine-2,4-diamine]	< 250
Cc1nnnn1-c1cc(Nc2ncc(F)c(NC3CC(C)(C)NC(C)(C)C3)n2)cnc1OC(C)C [Compound I-114, 5-fluoro-N2-(6-isopropoxy-5-(5-methyl-1H-tetrazol-1-yl)pyridin-3-yl)-N4-(2,2,6,6-tetramethylpiperidin-4-yl)pyrimidine-2,4-diamine]	< 250
Cc1ccc(C)n1-c1cc(Nc2ncc(F)c(NC3CC(C)(C)N(C)C(C)(C)C3)n2)cnc1OC(C)C [Compound I-115, 5-fluoro-N2-(6-isopropoxy-5-(2,5-dimethyl-1H-pyrrol-1-yl)pyridin-3-yl)-N4-(1,2,2,6,6-pentamethylpiperidin-4-yl)pyrimidine-2,4-diamine]	500 to 1000
CC(C)Oc1ncc(Nc2ncc(F)c(NC3CC(C)(C)N(C)C(C)(C)C3)n2)cc1-c1nnnn1C [Compound I-126, 5-fluoro-N2-(6-isopropoxy-5-(1-methyl-1H-tetrazol-5-yl)pyridin-3-yl)-N4-(1,2,2,6,6-pentamethylpiperidin-4-yl)pyrimidine-2,4-diamine]	< 250
CC(C)Oc1ncc(Nc2ncc(C(N)=O)c(NC3CC(C)(C)N(C)C(C)(C)C3)n2)cc1-c1nnnn1C [Compound I-128, 2-(6-isopropoxy-5-(1-methyl-1H-tetrazol-5-yl)pyridin-3-ylamino)-4-(1,2,2,6,6-pentamethylpiperidin-4-ylamino)pyrimidine-5-carboxamide]	> 1000
CC(C)Oc1ncc(Nc2ncc(C#N)c(NC3CC(C)(C)N(C)C(C)(C)C3)n2)cc1-c1nnnn1C [Compound I-129, 2-(6-isopropoxy-5-(1-methyl-1H-tetrazol-5-yl)pyridin-3-ylamino)-4-(1,2,2,6,6-pentamethylpiperidin-4-ylamino)pyrimidine-5-carbonitrile]	500 to 1000
CC(C)Oc1ncc(Nc2ncc(C#N)c(NC3CC(C)(C)NC(C)(C)C3)n2)cc1-c1nnnn1C [Compound I-130, 2-(6-isopropoxy-5-(1-methyl-1H-tetrazol-5-yl)pyridin-3-ylamino)-4-(2,2,6,6-tetramethylpiperidin-4-ylamino)pyrimidine-5-carbonitrile]	> 1000
CC(C)Oc1ncc(Nc2ncc(F)c(NC3CC(C)(C)N(C)C(C)(C)C3)n2)cc1-c1nnnn1C(C)C [Compound I-131, 5-fluoro-N2-(6-isopropoxy-5-(1-isopropyl-1H-tetrazol-5-yl)pyridin-3-yl)-N4-(1,2,2,6,6-pentamethylpiperidin-4-yl)pyrimidine-2,4-diamine]	500 to 1000
CC(C)Oc1ncc(Nc2ncc(F)c(NC3CC(C)(C)NC(C)(C)C3)n2)cc1-c1nnnn1C(C)C [Compound I-132, 5-fluoro-N2-(6-isopropoxy-5-(1-isopropyl-1H-tetrazol-5-yl)pyridin-3-yl)-N4-(2,2,6,6-tetramethylpiperidin-4-yl)pyrimidine-2,4-diamine]	500 to 1000
CC(C)Oc1ncc(Nc2ncc(C(N)=O)c(NC3CC(C)(C)N(C)C(C)(C)C3)n2)cc1-c1nnnn1C(C)C [Compound I-133, 2-(6-isopropoxy-5-(1-isopropyl-1H-tetrazol-5-yl)pyridin-3-ylamino)-4-(1,2,2,6,6-pentamethylpiperidin-4-ylamino)pyrimidine-5-carboxamide]	500 to 1000
CC(C)Oc1ncc(Nc2ncc(C(N)=O)c(NC3CC(C)(C)NC(C)(C)C3)n2)cc1-c1nnnn1C(C)C [Compound I-134, 2-(6-isopropoxy-5-(1-isopropyl-1H-tetrazol-5-yl)pyridin-3-ylamino)-4-(2,2,6,6-tetramethylpiperidin-4-ylamino)pyrimidine-5-carboxamide]	> 1000
CC(C)Oc1ncc(Nc2ncc(C#N)c(NC3CC(C)(C)N(C)C(C)(C)C3)n2)cc1-c1nnnn1C(C)C [Compound I-135, 2-(6-isopropoxy-5-(1-isopropyl-1H-tetrazol-5-yl)pyridin-3-ylamino)-4-(1,2,2,6,6-pentamethylpiperidin-4-ylamino)pyrimidine-5-carbonitrile]	500 to 1000
CC(C)Oc1ncc(Nc2ncc(C#N)c(NC3CC(C)(C)NC(C)(C)C3)n2)cc1-c1nnnn1C(C)C [Compound I-136, 2-(6-isopropoxy-5-(1-isopropyl-1H-tetrazol-5-yl)pyridin-3-ylamino)-4-(2,2,6,6-tetramethylpiperidin-4-ylamino)pyrimidine-5-carbonitrile]	> 1000
CC(C)Oc1ncc(Nc2ncc(F)c(NC3CC(C)(C)N(C)C(C)(C)C3)n2)cc1-c1nnnn1C1CC1 [Compound I-137, N2-(5-(1-cyclopropyl-1H-tetrazol-5-yl)-6-isopropoxypyridin-3-yl)-5-fluoro-N4-(1,2,2,6,6-pentamethylpiperidin-4-yl)pyrimidine-2,4-diamine]	< 250

More lines, now with the values ahead:

IC50 [nM]	Structure (SMILES)
500 to 1000	Cc1ccc(C)n1-c1cc(Nc2ncc(F)c(NC3CC(C)(C)NC(C)(C)C3)n2)cnc1OC(C)C [Compound I-116, 5-fluoro-N2-(6-isopropoxy-5-(2,5-dimethyl-1H-pyrrol-1-yl)pyridin-3-yl)-N4-(2,2,6,6-tetramethylpiperidin-4-yl)pyrimidine-2,4-diamine]
250 to 500	CCOc1ncc(Nc2ncc(F)c(NC3CC(C)(C)N(C)C(C)(C)C3)n2)cc1OC(F)F [Compound I-117, N2-(5-(difluoromethoxy)-6-ethoxypyridin-3-yl)-5-fluoro-N4-(1,2,2,6,6-pentamethylpiperidin-4-yl)pyrimidine-2,4-diamine]
250 to 500	CCOc1ncc(Nc2ncc(F)c(NC3CC(C)(C)NC(C)(C)C3)n2)cc1OC(F)F [Compound I-118, N2-(5-(difluoromethoxy)-6-ethoxypyridin-3-yl)-5-fluoro-N4-(2,2,6,6-tetramethylpiperidin-4-yl)pyrimidine-2,4-diamine]
250 to 500	CN1C(C)(C)CC(Nc2nc(Nc3ccc(OCCN4CCOCC4)c(C(F)(F)F)c3)ncc2F)CC1(C)C [Compound I-119, N2-(4-(2-morpholinoethoxy)-3-(trifluoromethyl)phenyl)-5-fluoro-N4-(1,2,2,6,6-pentamethylpiperidin-4-yl)pyrimidine-2,4-diamine]
> 1000	CC1(C)CC(Nc2nc(Nc3ccc(OCCN4CCOCC4)c(OC(F)F)c3)ncc2F)CC(C)(C)N1 [Compound I-120, N2-(4-(2-morpholinoethoxy)-3-(difluoromethoxy)phenyl)-5-fluoro-N4-(2,2,6,6-tetramethylpiperidin-4-yl)pyrimidine-2,4-diamine]
500 to 1000	CN1C(C)(C)CC(Nc2nc(Nc3ccc(OCCN4CCOCC4)c(OC(F)F)c3)ncc2F)CC1(C)C [Compound I-121, N2-(4-(2-morpholinoethoxy)-3-(difluoromethoxy)phenyl)-5-fluoro-N4-(1,2,2,6,6-pentamethylpiperidin-4-yl)pyrimidine-2,4-diamine]
> 1000	CC1(C)CC(Nc2nc(Nc3ccc(OC(C)(C)CN4CCOCC4)c(OC(F)F)c3)ncc2F)CC(C)(C)N1 [Compound I-122, N2-(4-(2-methyl-1-morpholinopropan-2-yloxy)-3-(difluoromethoxy)phenyl)-5-fluoro-N4-(2,2,6,6-tetramethylpiperidin-4-yl)pyrimidine-2,4-diamine]
< 250	CN1C(C)(C)CC(Nc2nc(Nc3ccc(OC(C)(C)CN4CCOCC4)c(OC(F)F)c3)ncc2F)CC1(C)C [Compound I-123, N2-(4-(2-methyl-1-morpholinopropan-2-yloxy)-3-(difluoromethoxy)phenyl)-5-fluoro-N4-(1,2,2,6,6-pentamethylpiperidin-4-yl)pyrimidine-2,4-diamine]
500 to 1000	CC1(C)CC(Nc2nc(Nc3ccc(OC(C)(C)CN4CCCC4)c(OC(F)F)c3)ncc2F)CC(C)(C)N1 [Compound I-124, N2-(4-(2-methyl-1-(pyrrolidin-1-yl)propan-2-yloxy)-3-(difluoromethoxy)phenyl)-5-fluoro-N4-(2,2,6,6-tetramethylpiperidin-4-yl)pyrimidine-2,4-diamine]
250 to 500	CC(C)Oc1ncc(Nc2ncc(F)c(NC3CC(C)(C)NC(C)(C)C3)n2)cc1-c1nnnn1C [Compound I-127, 5-fluoro-N2-(6-isopropoxy-5-(1-methyl-1H-tetrazol-5-yl)pyridin-3-yl)-N4-(2,2,6,6-tetramethylpiperidin-4-yl)pyrimidine-2,4-diamine]
500 to 1000	CC(C)Oc1ncc(Nc2ncc(F)c(NC3CC(C)(C)NC(C)(C)C3)n2)cc1-c1nnnn1C1CC1 [Compound I-138, N2-(5-(1-cyclopropyl-1H-tetrazol-5-yl)-6-isopropoxypyridin-3-yl)-5-fluoro-N4-(2,2,6,6-tetramethylpiperidin-4-yl)pyrimidine-2,4-diamine]

same assay, conditions: human primary T cells stimulated with anti-CD3 + anti-CD28, 24 hours

IC50 [nM]	Structure (SMILES)
250 to 500	CC1(C)CC(Nc2nc(Nc3ccc(F)c(-n4cnnn4)c3)ncc2C(N)=O)CC(C)(C)N1 [Compound I-125, 5-aminocarbonyl-N2-[4-fluoro-3-(1H-tetrazol-1-yl)]phenyl-N4-(2,2,6,6-tetramethylpiperidin-4-yl)-2,4-pyrimidinediamine]
